# From patent US20240158408A1, “Nitrogen-Containing Heterocyclic Compound, Pharmaceutical Compositions thereof and Use thereof” (280 Bio, Inc., priority 2022, published 2024)
# Target: PI3Kα (Homo sapiens (Human), UniProt P42336)
# Experiment: ADP-Glo Kinase Assay, PI3Kα enzyme activity inhibition
# Settings: not given
# Chain of PI3Kα (P42336 whole entry): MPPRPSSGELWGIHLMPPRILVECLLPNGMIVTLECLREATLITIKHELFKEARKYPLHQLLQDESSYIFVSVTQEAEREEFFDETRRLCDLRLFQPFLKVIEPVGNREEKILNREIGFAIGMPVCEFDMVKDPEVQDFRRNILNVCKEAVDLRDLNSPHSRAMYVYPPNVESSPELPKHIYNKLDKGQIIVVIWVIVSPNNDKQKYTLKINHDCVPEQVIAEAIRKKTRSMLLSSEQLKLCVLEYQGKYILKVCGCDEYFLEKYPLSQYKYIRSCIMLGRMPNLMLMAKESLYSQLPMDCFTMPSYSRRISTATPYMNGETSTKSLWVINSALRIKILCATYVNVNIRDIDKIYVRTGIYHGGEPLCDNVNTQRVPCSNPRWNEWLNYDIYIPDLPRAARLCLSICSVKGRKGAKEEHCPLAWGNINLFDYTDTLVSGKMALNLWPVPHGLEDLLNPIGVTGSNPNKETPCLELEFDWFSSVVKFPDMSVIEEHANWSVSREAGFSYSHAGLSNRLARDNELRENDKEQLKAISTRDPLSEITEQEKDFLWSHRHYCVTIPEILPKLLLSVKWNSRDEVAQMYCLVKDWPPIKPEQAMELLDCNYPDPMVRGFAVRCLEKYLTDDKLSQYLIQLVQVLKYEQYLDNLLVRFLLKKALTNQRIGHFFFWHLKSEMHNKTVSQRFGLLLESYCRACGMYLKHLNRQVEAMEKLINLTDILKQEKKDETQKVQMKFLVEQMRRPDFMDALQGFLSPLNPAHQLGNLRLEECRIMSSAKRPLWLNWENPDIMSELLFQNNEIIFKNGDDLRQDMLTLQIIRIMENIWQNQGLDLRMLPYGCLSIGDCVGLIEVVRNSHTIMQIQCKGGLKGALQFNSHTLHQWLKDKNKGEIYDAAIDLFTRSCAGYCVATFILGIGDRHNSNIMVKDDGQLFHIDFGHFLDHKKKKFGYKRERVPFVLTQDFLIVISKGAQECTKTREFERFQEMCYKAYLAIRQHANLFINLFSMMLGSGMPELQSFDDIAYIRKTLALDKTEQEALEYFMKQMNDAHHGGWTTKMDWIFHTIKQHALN
# Chain of PI3Kα (P27986 whole entry partner): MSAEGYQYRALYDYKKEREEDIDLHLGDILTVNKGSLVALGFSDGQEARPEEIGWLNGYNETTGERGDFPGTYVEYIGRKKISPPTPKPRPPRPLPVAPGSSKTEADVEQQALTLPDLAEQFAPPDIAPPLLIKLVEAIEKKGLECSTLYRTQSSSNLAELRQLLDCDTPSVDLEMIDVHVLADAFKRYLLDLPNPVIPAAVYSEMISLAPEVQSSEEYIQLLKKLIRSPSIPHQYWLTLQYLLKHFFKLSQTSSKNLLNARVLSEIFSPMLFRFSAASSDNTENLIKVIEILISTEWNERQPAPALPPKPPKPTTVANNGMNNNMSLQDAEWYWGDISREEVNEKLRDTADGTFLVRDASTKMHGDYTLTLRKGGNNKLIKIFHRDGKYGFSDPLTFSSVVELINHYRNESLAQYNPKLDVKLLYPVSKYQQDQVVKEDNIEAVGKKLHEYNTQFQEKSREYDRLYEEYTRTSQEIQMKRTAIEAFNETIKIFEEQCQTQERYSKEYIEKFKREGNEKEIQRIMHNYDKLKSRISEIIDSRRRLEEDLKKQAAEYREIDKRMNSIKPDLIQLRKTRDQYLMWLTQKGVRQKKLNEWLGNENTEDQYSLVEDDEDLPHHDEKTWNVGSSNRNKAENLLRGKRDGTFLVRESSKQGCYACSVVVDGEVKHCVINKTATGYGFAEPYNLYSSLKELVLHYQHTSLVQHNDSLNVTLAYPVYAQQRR
row,SMILES,PI3Kaα IC50
1,CCn1nc2ccc(NC(=O)c3cc(F)cc(C(F)(F)F)c3)c3c2c1C(=O)NC3c1cc(F)ccc1Cl (stereo not shown) [YL115],+++ (key: +represents IC50<=250 nM; ++ represents 250 nM<IC50<=10 μM; +++ represents IC50>10 μM)
2,CC(C)n1nc2ccc(NC(=O)c3cc(F)cc(C(F)(F)F)c3)c3c2c1C(=O)NC3c1cc(F)ccc1Cl (stereo not shown) [YL118],++ (key: +represents IC50<=250 nM; ++ represents 250 nM<IC50<=10 μM; +++ represents IC50>10 μM)

# Same assay, conditions: ADP-Glo; ATP 25 μM; PIP2 50 μg/mL; 1 hour at room temperature
row,SMILES,PI3Kaα IC50
1,Cn1nc2c(-c3cn[nH]c3F)cc(NC(=O)c3cc(F)cc(C(F)(F)F)c3)c3c2c1C(=O)NC3c1cc(F)ccc1Cl (stereo not shown) [YL113],+++ (+++ represents IC50>10 μM)
2,O=C(Nc1cc(F)cc(C(F)(F)F)c1)Nc1cc(Br)c2c3c1C(c1cc(F)ccc1Cl)NC(=O)N3CC2 (stereo not shown) [YL122],+++ (+++ represents IC50>10 μM)
3,N#Cc1n[nH]cc1-c1cc(NC(=O)c2cc(F)cc(C(F)(F)F)c2)c2c3c1CCN3C(=O)NC2c1cc(F)ccc1Cl (stereo not shown) [YL126],+++ (+++ represents IC50>10 μM)
4,O=C(Nc1cc(-c2ccc3ncnn3c2)c2c3c1C(c1cc(F)ccc1Cl)NC(=O)N3CC2)c1cc(F)cc(C(F)(F)F)c1 (stereo not shown) [YL128],+++ (+++ represents IC50>10 μM)
5,O=C(Nc1cc(-c2ccc3ncnn3c2F)c2c3c1C(c1cc(F)ccc1Cl)NC(=O)N3CC2)c1cc(F)cc(C(F)(F)F)c1 (stereo not shown) [YL129],+++ (+++ represents IC50>10 μM)
6,N#Cc1ccc(-c2cc(NC(=O)c3cc(F)cc(C(F)(F)F)c3)c3c4c2CCN4C(=O)NC3c2cc(Cl)ccc2Cl)c(N)n1 (stereo not shown) [YL130],+++ (+++ represents IC50>10 μM)
7,N#Cc1c(N)cccc1-c1cc(NC(=O)c2cc(F)cc(C(F)(F)F)c2)c2c3c1CCN3C(=O)NC2c1cc(Cl)ccc1Cl (stereo not shown) [YL132],+++ (+++ represents IC50>10 μM)
8,N#Cc1c(N)cccc1-c1cc(NC(=O)c2cc(F)cc(C(F)(F)F)c2)c2c3c1CCN3C(=O)NC2c1cc(F)ccc1Cl (stereo not shown) [YL133],+++ (+++ represents IC50>10 μM)
9,N#Cc1ccc(-c2cc(NC(=O)c3cc(F)cc(C(F)(F)F)c3)c3c4c2CCN4C(=O)NC3c2cc(F)ccc2Cl)c(N)n1 (stereo not shown) [YL134],+++ (+++ represents IC50>10 μM)
10,N#Cc1ncccc1-c1cc(NC(=O)c2cc(F)cc(C(F)(F)F)c2)c2c3c1CCN3C(=O)NC2c1cc(F)ccc1Cl (stereo not shown) [YL136],++ (++ represents 250 nM<IC50<=10 μM)
11,N#Cc1nc(N)ncc1-c1cc(NC(=O)c2cc(F)cc(C(F)(F)F)c2)c2c3c1CCN3C(=O)NC2c1cc(F)ccc1Cl (stereo not shown) [YL137],+++ (+++ represents IC50>10 μM)
12,O=C(Nc1cc(-c2ccc3ncnn3c2Br)c2c3c1C(c1cc(F)ccc1Cl)NC(=O)N3CC2)c1cc(F)cc(C(F)(F)F)c1 (stereo not shown) [YL139],+++ (+++ represents IC50>10 μM)

# Results, then the molecule that gave them:
row,PI3Kaα IC50,SMILES
1,+++ (+++ represents IC50>10 μM),C#Cc1c(-c2cc(NC(=O)c3cc(F)cc(C(F)(F)F)c3)c3c4c2CCN4C(=O)NC3c2cc(F)ccc2Cl)ccc2ncnn12 (stereo not shown) [YL140]
2,+++ (+++ represents IC50>10 μM),N#Cc1ncncc1-c1cc(NC(=O)c2cc(F)cc(C(F)(F)F)c2)c2c3c1CCN3C(=O)NC2c1cc(F)ccc1Cl (stereo not shown) [YL141]
3,+++ (+++ represents IC50>10 μM),N#Cc1c(-c2cc(NC(=O)c3cc(F)cc(C(F)(F)F)c3)c3c4c2CCN4C(=O)NC3c2cc(F)ccc2Cl)ccc2[nH]ncc12 (stereo not shown) [YL142]
4,+++ (+++ represents IC50>10 μM),N#Cc1nc(F)ncc1-c1cc(NC(=O)c2cc(F)cc(C(F)(F)F)c2)c2c3c1CCN3C(=O)NC2c1cc(F)ccc1Cl (stereo not shown) [YL143]
5,+++ (+++ represents IC50>10 μM),O=C(Nc1cc(-c2ccc3ncnn3c2C(F)(F)F)c2c3c1C(c1cc(F)ccc1Cl)NC(=O)N3CC2)c1cc(F)cc(C(F)(F)F)c1 (stereo not shown) [YL145]
6,+++ (+++ represents IC50>10 μM),COc1c(-c2cc(NC(=O)c3cc(F)cc(C(F)(F)F)c3)c3c4c2CCN4C(=O)NC3c2cc(F)ccc2Cl)ccc2ncnn12 (stereo not shown) [YL146]
7,+++ (+++ represents IC50>10 μM),O=C(Nc1cc(-c2cnc3[nH]cnc3c2Cl)c2c3c1C(c1cc(F)ccc1Cl)NC(=O)N3CC2)c1cc(F)cc(C(F)(F)F)c1 (stereo not shown) [YL147]
8,++ (++ represents 250 nM<IC50<=10 μM),N#Cc1cc(N)ccc1-c1cc(NC(=O)c2cc(F)cc(C(F)(F)F)c2)c2c3c1CCN3C(=O)NC2c1cc(F)ccc1Cl (stereo not shown) [YL150]
9,+++ (+++ represents IC50>10 μM),N#Cc1cc(N)ncc1-c1cc(NC(=O)c2cc(F)cc(C(F)(F)F)c2)c2c3c1CCN3C(=O)NC2c1cc(F)ccc1Cl (stereo not shown) [YL152]
10,+++ (+++ represents IC50>10 μM),N#Cc1cc2ncnn2cc1-c1cc(NC(=O)c2cc(F)cc(C(F)(F)F)c2)c2c3c1CCN3C(=O)NC2c1cc(F)ccc1Cl (stereo not shown) [YL153]

# Same assay, conditions: PI3Kaα IC50
row,SMILES,IC50 [µM]
1,Nc1cc(NC(=O)c2cc(F)cc(C(F)(F)F)c2)c2c3c1CCN3C(=O)NC2c1cc(F)ccc1C(F)(F)F (stereo not shown) [YL096],0.25 to 10

# Same assay, conditions: PI3Kaα IC50, ADP-Glo; ATP 25 μM; PIP2 50 μg/mL; 1 hour at room temperature
row,IC50 [µM],SMILES
1,0.25 to 10,Nc1cc(-c2nc3cc(Cl)ccc3[nH]2)c2c3c1CCN3C(=O)NC2c1cc(F)ccc1Cl (stereo not shown) [YL099]
2,0.25 to 10,Nc1cc(-c2nc3cc(Cl)c(Cl)cc3[nH]2)c2c3c1CCN3C(=O)NC2c1cc(F)ccc1Cl (stereo not shown) [YL100]
3,> 10,N#Cc1c(-c2cc(NC(=O)c3cc(F)cc(C(F)(F)F)c3)c3c4c2CCN4C(=O)NC3c2cc(F)ccc2Cl)cc(F)c2ncnn12 (stereo not shown) [YL149]
